Data taken from the supplement of paper PMC10627819.

What was measured:
B. subtilis 168 [1] = assay: fitness (endpoint OD595 vs no drug) (fraction); higher = more growth
Method in brief: (§1)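 Fitness is computed from the optical density at which cultures reach stationary phase, divided by the robust mean of no-drug control wells. Any value above 1 is set to 1. Cultures started at OD595 0.01 in 384-well plates with TSB, LB Lennox or CY at 37 °C, and OD595 was read every 30 min for 14 h against a first-reading background.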

S. aureus Newman [2] = assay: as above
Method in brief: as §1

S. aureus DSM 20231 = assay: Bliss interaction score (quartile over a dose matrix) (fitness difference); higher = more antagonism (negative = synergy)
Method in brief: (§2)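 Quartiles of the Bliss score were taken over technical, biological and donor/recipient replicates. That score is observed fitness minus the product of the single-drug fitness values, which were inferred from combination data. Fitness itself is OD595 at entry into stationary phase divided by the plate's robust no-drug mean, with a cap at 1.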

S. pneumoniae D39V [3] = assay: as above
Method in brief: as §2

B. subtilis 168 [4] = assay: as above
Method in brief: as §2

S. aureus Newman [5] = assay: as above
Method in brief: as §2

S. pneumoniae D39V [6] = assay: fitness (endpoint OD595 vs no drug) (fraction); higher = more growth
Method in brief: as §1
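Throughout, for Bliss interaction score (quartile over a dose matrix): first quartile when negative (synergy) and third quartile when positive (antagonism).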

CO/N=C(\C(=O)N[C@@H]1C(=O)N2C(C(=O)O)=C(COC(N)=O)CS[C@H]12)c1ccco1 [Cefuroxime] + CN[C@@H]1[C@H](O)[C@H](NC)[C@H]2O[C@@]3(O)C(=O)C[C@@H](C)O[C@H]3O[C@@H]2[C@H]1O [Spectinomycin]
fitness, B. subtilis 168 [1]
Details | first compound 0.04875 µg/mL | first compound 0.0975 µg/mL | first compound 0.195 µg/mL
partner 2 µg/mL | 0.717 | 0.667 | 0.55
partner 4 µg/mL | 0.799 | 0.645 | 0.569

fitness, one replicate
Details | first compound 0.04875 µg/mL | first compound 0.0975 µg/mL | first compound 0.195 µg/mL | first compound 1.562 µg/mL | first compound 3.125 µg/mL | first compound 6.25 µg/mL
B. subtilis 168 [1], partner 2 µg/mL | – | – | – | 0.3 | 0.171 | 0.134
B. subtilis 168 [1], partner 4 µg/mL | – | – | – | 0.234 | 0.0263 | 0.0348
B. subtilis 168 [1], partner 8 µg/mL | – | – | – | 0.0211 | 0 | 0.0048
S. aureus Newman [2], partner 4 µg/mL | 0.932 | 0.971 | 0.9 | – | – | –
S. aureus Newman [2], partner 8 µg/mL | 0.943 | 0.96 | 0.877 | – | – | –
S. aureus Newman [2], partner 16 µg/mL | 0.94 | 0.918 | 0.84 | – | – | –

Details | Bliss interaction score
B. subtilis 168 [4] | -0.0976
S. aureus DSM 20231 | 0.116
S. aureus Newman [5] | 0.127
S. pneumoniae D39V [3] | 0.0427

CO/N=C(\C(=O)N[C@@H]1C(=O)N2C(C(=O)O)=C(COC(N)=O)CS[C@H]12)c1ccco1 [Cefuroxime] + CN[C@@H]1[C@H](O[C@H]2[C@H](O[C@H]3[C@H](O)[C@@H](O)[C@H](N=C(N)N)[C@@H](O)[C@@H]3N=C(N)N)O[C@@H](C)[C@]2(O)C=O)O[C@@H](CO)[C@H](O)[C@H]1O [Streptomycin]
fitness, B. subtilis 168 [1]
Details | first compound 0.04875 µg/mL | first compound 0.0975 µg/mL | first compound 0.195 µg/mL | first compound 1.562 µg/mL | first compound 3.125 µg/mL | first compound 6.25 µg/mL
partner 2 µg/mL | 0.722 | 0.664 | 0.6 | 0.132 | 0.088 | 0.0549
partner 4 µg/mL | – | – | 0.164 | 0.0266 | 0.015 | 0.0149
partner 8 µg/mL | 0.0543 | 0.0254 | 0.0361 | 0.032 | 0.0257 | 0.0148

fitness, S. aureus Newman [2], one replicate
Details | first compound 0.04875 µg/mL | first compound 0.0975 µg/mL | first compound 0.195 µg/mL
partner 2 µg/mL | 0.826 | 0.746 | 0.814
partner 4 µg/mL | 0.944 | ≥ 1 | 0.781
partner 8 µg/mL | 0.994 | 0.963 | 0.81

Details | Bliss interaction score
B. subtilis 168 [4] | -0.123
S. aureus DSM 20231 | -0.357
S. aureus Newman [5] | 0.335
S. pneumoniae D39V [3] | 0.0384

CO/N=C(\C(=O)N[C@@H]1C(=O)N2C(C(=O)O)=C(COC(N)=O)CS[C@H]12)c1ccco1 [Cefuroxime] + CN(N=O)C(=O)N[C@@H](C=O)[C@@H](O)[C@H](O)[C@H](O)CO [Streptozotocin]
fitness, B. subtilis 168 [1]
Details | first compound 0.04875 µg/mL | first compound 0.0975 µg/mL | first compound 0.195 µg/mL
partner 0.15 µg/mL | 0.717 | 0.688 | 0.539
partner 0.3 µg/mL | – | – | 0.54
partner 0.6 µg/mL | – | – | 0.496

fitness, S. aureus Newman [2], one replicate
Details | first compound 0.04875 µg/mL | first compound 0.0975 µg/mL | first compound 0.195 µg/mL
partner 0.15 µg/mL | 0.958 | 0.995 | 0.96
partner 0.3 µg/mL | 0.731 | 0.723 | 0.736
partner 0.6 µg/mL | 0.534 | 0.51 | 0.464

Details | Bliss interaction score
B. subtilis 168 [4] | -0.0649
S. aureus DSM 20231 | 0.0897
S. aureus Newman [5] | -0.194
S. pneumoniae D39V [3] | -0.0368

Cc1ncc([N+](=O)[O-])n1CCO [Metronidazole] + C/C(=C\C(=O)OCCCCCCCCC(=O)O)C[C@@H]1OC[C@H](C[C@@H]2O[C@H]2[C@@H](C)[C@H](C)O)[C@@H](O)[C@H]1O [Pseudomonic acid]
fitness, S. pneumoniae D39V [6]
Details | first compound 1.073 µg/mL | first compound 1.25 µg/mL | first compound 2.145 µg/mL | first compound 2.5 µg/mL | first compound 4.29 µg/mL | first compound 5 µg/mL
partner 0.03 µg/mL | 0.903 | 0.932 | 0.859 | 0.96 | 0.877 | 0.92
partner 0.06 µg/mL | – | 0.816 | – | 0.829 | 0.81 | 0.816
partner 0.12 µg/mL | 0.529 | 0.57 | 0.632 | 0.596 | 0.575 | 0.588

fitness, S. aureus Newman [2], one replicate
Details | first compound 0.625 µg/mL | first compound 1.25 µg/mL | first compound 2.5 µg/mL
partner 0.0313 µg/mL | 0.0517 | 0.0718 | 0.0759
partner 0.0625 µg/mL | 0.0386 | 0.0347 | 0.0304
partner 0.125 µg/mL | 0.0386 | 0.0514 | 0.0492

Details | Bliss interaction score
B. subtilis 168 [4] | -0.0197
S. aureus DSM 20231 | 0.0111
S. aureus Newman [5] | 0.0128
S. pneumoniae D39V [3] | 0.0684

O=C(O)c1cn(C2CC2)c2cc(N3CCNCC3)c(F)cc2c1=O [Ciprofloxacin] + Cn1nnc(-c2ccc(-c3ccc(N4C[C@H](CO)OC4=O)cc3F)cn2)n1 [Tedizolid]
fitness
Details | partner 0.03125 µg/mL | partner 0.0625 µg/mL | partner 0.125 µg/mL | partner 0.25 µg/mL | partner 0.5 µg/mL
S. aureus Newman [2], first compound 0.0375 µg/mL | – | – | 0.633 | – | –
S. aureus Newman [2], first compound 0.075 µg/mL | – | 0.56 | 0.592 | 0.423 | –
S. aureus Newman [2], first compound 0.15 µg/mL | – | – | – | 0.13 | –
S. pneumoniae D39V [6], first compound 0.125 µg/mL | 0.935 | 0.95 | 0.771 | 0.331 | 0.102
S. pneumoniae D39V [6], first compound 0.25 µg/mL | 0.913 | 0.945 | 0.703 | – | –
S. pneumoniae D39V [6], first compound 0.5 µg/mL | 0.828 | 0.889 | – | 0.292 | 0.0949

S. pneumoniae D39V [6], first compound 0.25 µg/mL, one replicate
Details | fitness
partner 0.25 µg/mL | 0.257
partner 0.5 µg/mL | 0.0574

Details | Bliss interaction score
B. subtilis 168 [4] | 0.26
S. aureus DSM 20231 | 0.0744
S. aureus Newman [5] | 0.0978
S. pneumoniae D39V [3] | -0.0691

O=C(O)c1cn(C2CC2)c2cc(N3CCNCC3)c(F)cc2c1=O [Ciprofloxacin] + C/C(=C\C(=O)OCCCCCCCCC(=O)O)C[C@@H]1OC[C@H](C[C@@H]2O[C@H]2[C@@H](C)[C@H](C)O)[C@@H](O)[C@H]1O [Pseudomonic acid]
fitness, S. pneumoniae D39V [6]
Details | first compound 0.125 µg/mL | first compound 0.25 µg/mL | first compound 0.5 µg/mL
partner 0.03 µg/mL | 0.92 | 0.877 | –
partner 0.06 µg/mL | 0.828 | 0.742 | –
partner 0.12 µg/mL | 0.444 | 0.551 | 0.393

fitness, S. aureus Newman [2], one replicate
Details | first compound 0.078 µg/mL | first compound 0.156 µg/mL | first compound 0.312 µg/mL
partner 0.0313 µg/mL | 0.0919 | 0.0675 | 0.0586
partner 0.0625 µg/mL | 0.052 | 0.0404 | 0.0324
partner 0.125 µg/mL | 0.0642 | 0.0505 | 0.0607

Details | Bliss interaction score
B. subtilis 168 [4] | 0.0413
S. aureus DSM 20231 | 0.0149
S. aureus Newman [5] | 0.0616
S. pneumoniae D39V [3] | 0.0559

COc1cccc2c1C(=O)c1c(O)c3c(c(O)c1C2=O)C[C@@](O)(C(=O)CO)C[C@@H]3O[C@H]1C[C@H](N)[C@H](O)[C@H](C)O1 [Doxorubicin] + C/C(=C\C(=O)OCCCCCCCCC(=O)O)C[C@@H]1OC[C@H](C[C@@H]2O[C@H]2[C@@H](C)[C@H](C)O)[C@@H](O)[C@H]1O [Pseudomonic acid]
fitness, S. pneumoniae D39V [6]
Details | first compound 0.25 µg/mL | first compound 0.5 µg/mL | first compound 1 µg/mL
partner 0.03 µg/mL | 0.916 | 0.893 | 0.887
partner 0.06 µg/mL | 0.73 | 0.756 | 0.681
partner 0.12 µg/mL | 0.484 | 0.435 | 0.381

fitness, S. aureus Newman [2], one replicate
Details | first compound 0.625 µg/mL | first compound 1.25 µg/mL | first compound 2.5 µg/mL
partner 0.0313 µg/mL | 0.0603 | 0.0435 | 0.0003
partner 0.0625 µg/mL | 0.0314 | 0.0203 | 0.0075
partner 0.125 µg/mL | 0.0395 | 0.0395 | 0.0206

Details | Bliss interaction score
B. subtilis 168 [4] | 0.12
S. aureus DSM 20231 | -0.0156
S. aureus Newman [5] | -0.0226
S. pneumoniae D39V [3] | -0.079

CO/N=C(\C(=O)N[C@@H]1C(=O)N2C(C(=O)O)=C(COC(N)=O)CS[C@H]12)c1ccco1 [Cefuroxime] + CN[C@H](CC(C)C)C(=O)N[C@H]1C(=O)N[C@@H](CC(N)=O)C(=O)N[C@H]2C(=O)N[C@H]3C(=O)N[C@H](C(=O)N[C@H](C(=O)O)c4cc(O)cc(O)c4-c4cc3ccc4O)[C@H](O)c3ccc(c(Cl)c3)Oc3cc2cc(c3O[C@@H]2O[C@H](CO)[C@@H](O)[C@H](O)[C@H]2O[C@H]2C[C@](C)(N)[C@H](O)[C@H](C)O2)Oc2ccc(cc2Cl)[C@H]1O [Vancomycin]
fitness, S. aureus Newman [2], one replicate
Details | first compound 0.04875 µg/mL | first compound 0.0975 µg/mL | first compound 0.195 µg/mL
partner 0.1875 µg/mL | 0.934 | 0.974 | 0.943
partner 0.375 µg/mL | 0.93 | 0.995 | 0.925
partner 0.75 µg/mL | 0.975 | 0.988 | 0.926

Details | Bliss interaction score
B. subtilis 168 [4] | -0.0941
S. aureus DSM 20231 | 0.14
S. aureus Newman [5] | 0.0418
S. pneumoniae D39V [3] | -0.0597
